# Measurements from patent publication US20040191115A1 (priority 2003, published 2004).
# Where “and” joins values, the source holds several entries; their conditions need not be identical. Equal values may be shown once. Read-outs that look alike come from different tables or passages of the source.
# System: bacillus atrophaeus spores
# Settings: 2.52 percent H2O2, with cartons; for average count of colony forming units for the time period / log of average count for the time period: mean of samples; for average count of colony forming units for the time period / log of average count for the time period / Log Red. (Avg): normal speed; for Average CFU/mL / Average CFU/mandrel / Log (of Average CFU/mandrel) / Result #1 CFU/mL / Result #2 CFU/mL: normal operating speed
# Procedure: Studies were conducted to determine the microbial eradication on mandrels 34 that were subjected to vaporized sterilant introduced at the heaters 40. […] The efficacy of the mandrel sterilization was studied for both the mandrel caps 35 and the mandrel side tubes 37 (see FIG. 3).
# Each of the studies was further carried out using a testing media of bacillus atrophaeus spores for inoculating the mandrels. The mandrels were inoculated by spraying, using an aerating spray bottle having a solution with a concentration of about 7 log bacillus spores. The mandrels were then allowed to air dry. Controls were swabbed using cotton swabs to assure that the mandrels were properly inoculated. Following the machine operating period of the test, the mandrels were swabbed and the bacillus spores transferred to an agar media for incubation of the spores (at 32° C. for 48 hours) and subsequent recovery.
# The data was collected by taking swab samples at the mandrel cap (C) and on the mandrel side tubes (T). The mandrel side tube data is the sum of all of the side tubes.
# [1] = time 0 min, swab site C (mandrel cap)
# [2] = time 0 min, swab site T (mandrel side tubes)
# [3] = time 10 min, swab site C (mandrel cap)
# [4] = time 10 min, swab site T (mandrel side tubes)
# [5] = time 20 min, swab site C (mandrel cap)
# [6] = time 20 min, swab site T (mandrel side tubes)
# [7] = time 30 min, swab site C (mandrel cap)
# [8] = time 30 min, swab site T (mandrel side tubes)
# [9] = time 40 min, swab site T (mandrel side tubes)
smiles,measurement,setting,value
OO [hydrogen peroxide],average count of colony forming units for the time period,"time 0 min, cap",5.09E+05 CFU/mandrel
same,log of average count for the time period,"time 0 min, cap",5.71 log
same,average count of colony forming units for the time period,"time 0 min, side tubes",7.12E+05 CFU/mandrel
same,log of average count for the time period,"time 0 min, side tubes",5.85 log
same,Average CFU/mL,[1],1.32E+05 CFU/mL and 1.23E+05 CFU/mL
same,Average CFU/mandrel,[1],5.28E+05 CFU/mandrel and 4.90E+05 CFU/mandrel
same,Log (of Average CFU/mandrel),[1],5.72 Log and 5.69 Log
same,Result #1 CFU/mL,[1],1.19E+05 CFU/mL and 1.30E+05 CFU/mL
same,Result #2 CFU/mL,[1],1.45E+05 CFU/mL and 1.15E+05 CFU/mL
same,Average CFU/mL,[2],1.83E+05 CFU/mL and 1.73E+05 CFU/mL
same,Average CFU/mandrel,[2],7.32E+05 CFU/mandrel and 6.92E+05 CFU/mandrel
same,Log (of Average CFU/mandrel),[2],5.86 Log and 5.84 Log
same,Result #1 CFU/mL,[2],1.39E+05 CFU/mL and 1.71E+05 CFU/mL
same,Result #2 CFU/mL,[2],2.27E+05 CFU/mL and 1.75E+05 CFU/mL
same,average count of colony forming units for the time period,"time 10 min, cap",1.57E+05 CFU/mandrel
same,log of average count for the time period,"time 10 min, cap",5.20 log
same,average count of colony forming units for the time period,"time 10 min, side tubes",3.58E+05 CFU/mandrel
same,log of average count for the time period,"time 10 min, side tubes",5.55 log
same,Average CFU/mL,[3],3.35E+04 CFU/mL and 4.50E+04 CFU/mL
same,Average CFU/mandrel,[3],1.34E+05 CFU/mandrel and 1.80E+05 CFU/mandrel
same,Log (of Average CFU/mandrel),[3],5.13 Log and 5.26 Log
same,Result #1 CFU/mL,[3],3.50E+04 CFU/mL and 4.40E+04 CFU/mL
same,Result #2 CFU/mL,[3],3.20E+04 CFU/mL and 4.60E+04 CFU/mL
same,Average CFU/mL,[4],9.25E+04 CFU/mL and 8.65E+04 CFU/mL
same,Average CFU/mandrel,[4],3.70E+05 CFU/mandrel and 3.46E+05 CFU/mandrel
same,Log (of Average CFU/mandrel),[4],5.57 Log and 5.54 Log
same,Result #2 CFU/mL,[4],9.70E+04 CFU/mL and 6.70E+04 CFU/mL
same,Log Red. (Avg),"time 10 min relative to time zero, cap",0.51 Log
same,Log Red. (Avg),"time 10 min relative to time zero, side tubes",0.30 Log
same,average count of colony forming units for the time period,"time 20 min, cap",8.86E+04 CFU/mandrel
same,log of average count for the time period,"time 20 min, cap",4.95 log
same,average count of colony forming units for the time period,"time 20 min, side tubes",4.49E+05 CFU/mandrel
same,log of average count for the time period,"time 20 min, side tubes",5.65 log
same,Log (of Average CFU/mandrel),[5],4.88 Log and 5.01 Log
same,Result #1 CFU/mL,[5],1.93E+04 CFU/mL and 2.82E+04 CFU/mL
same,Result #2 CFU/mL,[5],1.86E+04 CFU/mL and 2.25E+04 CFU/mL
same,Average CFU/mandrel,[6],5.58E+05 CFU/mandrel and 3.40E+05 CFU/mandrel
same,Log (of Average CFU/mandrel),[6],5.75 Log and 5.53 Log
same,Log Red. (Avg),"time 20 min relative to time zero, cap",0.76 Log
same,Log Red. (Avg),"time 20 min relative to time zero, side tubes",0.20 Log
same,average count of colony forming units for the time period,"time 30 min, cap",4.39E+04 CFU/mandrel
same,log of average count for the time period,"time 30 min, cap",4.64 log
same,average count of colony forming units for the time period,"time 30 min, side tubes",2.49E+05 CFU/mandrel
same,log of average count for the time period,"time 30 min, side tubes",5.40 log
same,Average CFU/mandrel,[7],5.06E+04 CFU/mandrel and 3.72E+04 CFU/mandrel
same,Log (of Average CFU/mandrel),[7],4.70 Log and 4.57 Log
same,Result #2 CFU/mL,[7],1.12E+04 CFU/mL and 1.04E+04 CFU/mL
same,Average CFU/mL,[8],6.25E+04 CFU/mL and 6.20E+04 CFU/mL
same,Average CFU/mandrel,[8],2.50E+05 CFU/mandrel and 2.48E+05 CFU/mandrel
same,Log (of Average CFU/mandrel),[8],5.40 Log and 5.39 Log
same,Result #1 CFU/mL,[8],6.30E+04 CFU/mL and 5.10E+04 CFU/mL
same,Result #2 CFU/mL,[8],6.20E+04 CFU/mL and 7.30E+04 CFU/mL
same,Log Red. (Avg),"time 30 min relative to time zero, cap",1.06 Log
same,Log Red. (Avg),"time 30 min relative to time zero, side tubes",0.46 Log
same,average count of colony forming units for the time period,"time 40 min, cap",5.21E+03 CFU/mandrel
same,log of average count for the time period,"time 40 min, cap",3.72 log
same,average count of colony forming units for the time period,"time 40 min, side tubes",1.15E+05 CFU/mandrel
same,log of average count for the time period,"time 40 min, side tubes",5.06 log
same,Average CFU/mL,[9],2.71E+04 CFU/mL and 3.05E+04 CFU/mL
same,Average CFU/mandrel,[9],1.08E+05 CFU/mandrel and 1.22E+05 CFU/mandrel
same,Log (of Average CFU/mandrel),[9],5.04 Log and 5.09 Log
same,Result #1 CFU/mL,[9],2.50E+04 CFU/mL and 2.89E+04 CFU/mL
same,Result #2 CFU/mL,[9],2.92E+04 CFU/mL and 3.21E+04 CFU/mL
same,Log Red. (Avg),"time 40 min relative to time zero, cap",1.99 Log
same,Log Red. (Avg),"time 40 min relative to time zero, side tubes",0.79 Log
